# Measurements taken from PubChem BioAssay AID2050 (NMMLSC, 2009).
# The source made the active and inactive calls.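 How the source made its calls: active means EC50 at or below 30 µM together with a response span of at least a set limit; inactive means the rest.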
# Target: GTPase HRas (Homo sapiens) (UniProt P01112)
# Test: inhibition of fluorescent GTP binding to activated Ras – biochemical, pyrazoline analogs, multiplex bead flow cytometry, SAR follow-up (AID 2050)
# Details: GST-Ras beads, Bodipy-FL-GTP binding; for Ki: measured here: Ki calculated from EC50
# GTPase HRas (Homo sapiens), sequence (P01112 whole entry, looked up): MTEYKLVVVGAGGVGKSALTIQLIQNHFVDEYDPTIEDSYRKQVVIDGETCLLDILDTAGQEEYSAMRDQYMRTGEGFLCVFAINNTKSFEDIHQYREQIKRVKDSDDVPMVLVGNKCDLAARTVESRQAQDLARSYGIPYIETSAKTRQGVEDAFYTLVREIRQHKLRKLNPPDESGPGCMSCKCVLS
Compound,EC50,Ki [µM]
NS(=O)(=O)c1ccc(N2N=C(c3ccccc3)CC2c2ccccc2)cc1 (centres undefined),> 30 µM (inactive),–
COc1ccc(C2=NN(c3cccc(F)c3)C(c3ccc(OC)cc3)C2)cc1 (centres undefined),> 30 µM (inactive),–
CN(C)c1ccc(C2CC(c3ccc(Cl)cc3)=NN2c2ccccc2)cc1 (centres undefined),> 30 µM (inactive),–
O=S(=O)(O)c1ccc(N2N=C(c3ccccc3)CC2c2ccccc2)cc1 (centres undefined),> 30 µM (inactive),–
Clc1cccc(N2N=C(c3ccccc3)CC2c2ccccc2)c1 (centres undefined),> 30 µM (inactive),–
COc1ccc(C2CC(c3ccccc3C(F)(F)F)=NN2c2ccc(S(N)(=O)=O)cc2)cc1 (centres undefined),> 30 µM (inactive),–
Cc1ccccc1N1N=C(c2ccccc2)CC1c1ccc(N(C)C)cc1 (centres undefined),> 30 µM (inactive),–
CC(=O)Oc1ccc(C2=NN(c3ccccc3)C(c3ccccc3)C2)cc1 (centres undefined),> 30 µM (inactive),–
O=S(=O)(c1ccc(N2N=C(c3ccc(Br)cc3)CC2c2ccccc2)cc1)C(F)F (centres undefined),inactive,0.18
Cc1onc(-c2ccccc2)c1-c1ccc(S(N)(=O)=O)cc1,> 30 µM (inactive),–
NS(=O)(=O)c1ccc(N2N=C(c3ccccc3)CC2c2cccc(Br)c2)cc1 (centres undefined),> 30 µM (inactive),–
COc1ccc(C2=NN(c3ccccc3)C(c3ccccc3C(F)(F)F)C2)cc1 (centres undefined),inactive,1.19
CN(C)c1ccc(C2CC(c3ccccc3)=NN2c2ccc([N+](=O)[O-])cc2)cc1 (centres undefined),> 30 µM (inactive),–
COc1ccc(C2=NN(c3ccccc3)C(c3ccc(OC)c(OC)c3C(=O)O)C2)cc1 (centres undefined),> 30 µM (inactive),–
COc1ccc(C2=NN(c3cccc(F)c3)C(c3ccc(Cl)cc3)C2)cc1 (centres undefined),> 30 µM (inactive),–
COc1ccc(C2CC(c3cccc(N(C)C)c3)=NN2c2ccc(S(N)(=O)=O)cc2)cc1 (centres undefined),> 30 µM (inactive),–
O=C(O)c1ccc(N2N=C(c3ccccc3)CC2c2ccccc2)cc1 (centres undefined),> 30 µM (inactive),–
COc1ccc(C2CC(c3ccc(C)cc3)=NN2c2ccc(S(N)(=O)=O)cc2)cc1 (centres undefined),> 30 µM (inactive),–
COc1ccc(C2CC(c3cccc(C(F)(F)F)c3)=NN2c2ccc(S(N)(=O)=O)cc2)cc1 (centres undefined),> 30 µM (inactive),–
Brc1ccc(N2N=C(c3ccccc3)CC2c2ccccc2)cc1 (centres undefined),> 30 µM (inactive),–
NS(=O)(=O)c1ccc(N2N=C(c3ccc(Br)cc3)CC2c2ccc(F)cc2)cc1 (centres undefined),> 30 µM (inactive),–
FC(F)(F)c1cccc(N2N=C(c3ccc(Cl)cc3)CC2c2ccccc2Cl)c1 (centres undefined),> 30 µM (inactive),–
COc1ccc(C2CC(c3ccccc3C)=NN2c2ccc(S(N)(=O)=O)cc2)cc1 (centres undefined),> 30 µM (inactive),–

Compound,EC50,Ki [µM]
COc1ccc(C2CC(c3ccsc3)=NN2c2ccc(S(N)(=O)=O)cc2)cc1 (centres undefined),> 30 µM (inactive),–
COc1ccc(C2=NN(c3ccccc3F)C(c3ccc(F)cc3)C2)cc1 (centres undefined),> 30 µM (inactive),–
CN(C)c1ccc(C2CC(c3ccc(Br)cc3)=NN2c2ccccc2)cc1 (centres undefined),> 30 µM (inactive),–
O=[N+]([O-])c1ccc(N2N=C(c3ccccc3)CC2c2ccccc2)cc1 (centres undefined),> 30 µM (inactive),–
O=S(=O)(c1ccc(N2N=C(c3ccccc3)CC2c2ccccc2)cc1)C(F)F (centres undefined),> 30 µM (inactive),–
COc1ccc(C2CC(C3CCCCC3)=NN2c2ccc(S(N)(=O)=O)cc2)cc1 (centres undefined),> 30 µM (inactive),–
COc1ccc(C2CC(c3ccccc3Br)=NN2c2ccc(S(N)(=O)=O)cc2)cc1 (centres undefined),> 30 µM (inactive),–
COc1ccc(C2CC(c3cccc(F)c3)=NN2c2ccc(S(N)(=O)=O)cc2)cc1 (centres undefined),> 30 µM (inactive),–
COc1ccc(C2CC(c3ccncc3)=NN2c2ccc(S(N)(=O)=O)cc2)cc1 (centres undefined),> 30 µM (inactive),–
Cc1ccc(-c2cc(C(F)(F)F)nn2-c2ccc(S(N)(=O)=O)cc2)cc1,> 30 µM (inactive),–
COc1ccc(C2CC(c3ccc(Br)cc3)=NN2c2ccc(S(N)(=O)=O)cc2)cc1 (centres undefined),> 30 µM (inactive),–
COc1ccc(C2CC(c3ccccc3)=NN2c2ccc(Cl)c(C(=O)O)c2)cc1OC (centres undefined),> 30 µM (inactive),–
COc1ccc(C2CC(c3ccc(C(F)(F)F)cc3)=NN2c2ccc(S(N)(=O)=O)cc2)cc1 (centres undefined),> 30 µM (inactive),–
COc1ccc(C2CC(c3ccc(Br)cc3)=NN2c2ccccc2Cl)cc1 (centres undefined),> 30 µM (inactive),–
Cc1ccc(C2CC(c3ccccc3)=NN2c2ccc(S(N)(=O)=O)cc2)cc1 (centres undefined),> 30 µM (inactive),–
COc1ccc(C2CC(c3ccccc3)=NN2c2ccc(C(N)=O)cc2)cc1 (centres undefined),> 30 µM (inactive),–
COc1ccc(C2CC(c3cccc(Cl)c3)=NN2c2ccc(S(N)(=O)=O)cc2)cc1 (centres undefined),> 30 µM (inactive),–
COc1ccc(C2CC(c3cccc(OC)c3)=NN2c2ccc(S(N)(=O)=O)cc2)cc1 (centres undefined),> 30 µM (inactive),–
COc1ccc(C2CC(c3ccc(F)cc3)=NN2c2cccc(F)c2)cc1OC (centres undefined),> 30 µM (inactive),–
COc1ccc(C2=NN(c3ccccc3)C(c3ccc(Cl)cc3)C2)cc1 (centres undefined),inactive,0.24
O=[N+]([O-])c1cccc(C2CC(c3ccccc3)=NN2c2ccccc2)c1 (centres undefined),> 30 µM (inactive),–
O=[N+]([O-])c1ccc(N2N=C(c3ccccc3)CC2c2ccc(O)cc2)cc1 (centres undefined),> 30 µM (inactive),–
COc1ccc(C2CC(c3ccc(Cl)cc3)=NN2c2ccccc2)cc1OC (centres undefined),> 30 µM (inactive),–

Compound,EC50,Ki [µM]
COc1ccc(C2CC(c3ccccc3)=NN2c2ccc(S(N)(=O)=O)cc2)cc1OC (centres undefined),> 30 µM (inactive),–
COc1ccc(C2CC(c3ccc(N(C)C)cc3)=NN2c2ccc(S(N)(=O)=O)cc2)cc1 (centres undefined),> 30 µM (inactive),–
COc1ccc(-c2cc(-c3ccccc3)nn2-c2ccc(S(N)(=O)=O)cc2)cc1,> 30 µM (inactive),–
COc1ccc(C2CC(c3cccnc3)=NN2c2ccc(S(N)(=O)=O)cc2)cc1 (centres undefined),> 30 µM (inactive),–
COc1ccc(C2CC(c3cccc(C)c3)=NN2c2ccc(S(N)(=O)=O)cc2)cc1 (centres undefined),> 30 µM (inactive),–
NS(=O)(=O)c1ccc(N2N=C(c3ccccc3)CC2c2ccc(Br)cc2)cc1 (centres undefined),> 30 µM (inactive),–
COc1ccc(C2CC(c3cccs3)=NN2c2ccc(S(N)(=O)=O)cc2)cc1 (centres undefined),> 30 µM (inactive),–
Cc1ccccc1C1CC(c2ccccc2)=NN1c1ccc(S(N)(=O)=O)cc1 (centres undefined),> 30 µM (inactive),–
COc1ccc(C2CC(c3ccc(F)cc3)=NN2c2ccc(S(N)(=O)=O)cc2)cc1 (centres undefined),> 30 µM (inactive),–
Cc1cccc(C2CC(c3ccccc3)=NN2c2ccc(S(N)(=O)=O)cc2)c1 (centres undefined),> 30 µM (inactive),–
Clc1ccc(N2N=C(c3ccccc3)CC2c2ccccc2)cc1 (centres undefined),> 30 µM (inactive),–
COc1ccc(C2=NN(c3ccc(S(N)(=O)=O)cc3)C(c3ccc(OC)cc3)C2)cc1 (centres undefined),> 30 µM (inactive),–
NS(=O)(=O)c1ccc(N2N=C(c3ccccc3)CC2c2cccc(Cl)c2)cc1 (centres undefined),> 30 µM (inactive),–
COc1ccc(C2CC(c3ccc(F)cc3)=NN2c2ccccc2)cc1OC (centres undefined),> 30 µM (inactive),–
NS(=O)(=O)c1ccc(N2N=C(c3ccccc3)CC2c2ccc(Cl)cc2)cc1 (centres undefined),> 30 µM (inactive),–
COc1ccc(C2=NN(c3ccc(Cl)c(Cl)c3)C(c3ccc(OC)cc3)C2)cc1 (centres undefined),> 30 µM (inactive),–
COc1ccccc1N1N=C(c2ccccc2)CC1c1ccccc1 (centres undefined),> 30 µM (inactive),–
NS(=O)(=O)c1ccc(N2N=C(c3ccccc3)CC2c2ccccc2Br)cc1 (centres undefined),> 30 µM (inactive),–
COc1ccc(C2CC(c3ccccc3F)=NN2c2ccc(S(N)(=O)=O)cc2)cc1 (centres undefined),> 30 µM (inactive),–
COc1ccc(C2CC(c3ccccc3)=NN2c2ccc(Cl)c(C(=O)O)c2)cc1 (centres undefined),> 30 µM (inactive),–
COc1ccc(C2CC(C)=NN2c2ccc(S(N)(=O)=O)cc2)cc1 (centres undefined),> 30 µM (inactive),–
Fc1ccc(C2=NN(c3cccc(Br)c3)C(c3ccccc3)C2)cc1 (centres undefined),> 30 µM (inactive),–
COc1ccc(C2CC(c3ccccc3)=NN2c2ccc([N+](=O)[O-])cc2)cc1 (centres undefined),> 30 µM (inactive),–

Compound,EC50,Ki [µM]
COc1cccc(C2CC(c3ccccc3)=NN2c2ccc(S(N)(=O)=O)cc2)c1 (centres undefined),> 30 µM (inactive),–
CCc1ccc(C2=NN(c3ccc(S(N)(=O)=O)cc3)C(c3ccc(F)cc3)C2)cc1 (centres undefined),> 30 µM (inactive),–
COc1ccc(C2CC(c3cccc(Br)c3)=NN2c2ccc(S(N)(=O)=O)cc2)cc1 (centres undefined),> 30 µM (inactive),–
O=[N+]([O-])c1cccc(C2CC(c3ccc(F)cc3)=NN2c2ccccc2)c1 (centres undefined),> 30 µM (inactive),–
FC(F)(F)c1ccccc1C1CC(c2ccc(Br)cc2)=NN1c1ccccc1 (centres undefined),> 30 µM (inactive),–
Cc1ccccc1N1N=C(c2ccccc2)CC1c1cccc([N+](=O)[O-])c1 (centres undefined),> 30 µM (inactive),–
CN(C)c1ccc(C2CC(c3ccccc3)=NN2c2ccccc2)cc1 (centres undefined),> 30 µM (inactive),–
COc1ccccc1C1CC(c2ccccc2)=NN1c1ccccc1 (centres undefined),> 30 µM (inactive),–
NS(=O)(=O)c1ccc(N2N=C(c3ccccc3)CC2c2ccccc2Cl)cc1 (centres undefined),> 30 µM (inactive),–
COc1ccc(C2CC(c3ccccc3OC)=NN2c2ccc(S(N)(=O)=O)cc2)cc1 (centres undefined),> 30 µM (inactive),–
COc1ccccc1C1CC(c2ccccc2)=NN1c1ccc(S(N)(=O)=O)cc1 (centres undefined),> 30 µM (inactive),–
COc1ccc(C2CC(c3ccc(Cl)cc3)=NN2c2ccc(S(N)(=O)=O)cc2)cc1 (centres undefined),> 30 µM (inactive),–
COc1ccc(C2CC(c3ccccc3)=NN2c2cccc(S(N)(=O)=O)c2)cc1 (centres undefined),> 30 µM (inactive),–
COc1ccc(C2=NN(c3ccc(Cl)cc3)C(c3ccccc3F)C2)cc1 (centres undefined),> 30 µM (inactive),–
COc1ccc(C2CC(c3ccc(F)cc3)=NN2c2cc(Cl)ccc2Cl)cc1 (centres undefined),> 30 µM (inactive),–
CN(C)c1ccc(C2CC(c3ccc(F)cc3)=NN2c2ccccc2)cc1 (centres undefined),> 30 µM (inactive),–
NS(=O)(=O)c1ccc(N2N=C(c3ccc(Cl)cc3)CC2c2ccccc2)cc1 (centres undefined),inactive,0.01
Fc1ccccc1C1CC(c2ccc(Br)cc2)=NN1c1ccc(Br)cc1 (centres undefined),> 30 µM (inactive),–
COc1ccc(C2CC(c3ccccc3)=NN2c2ccc(C(=O)O)cc2)cc1 (centres undefined),> 30 µM (inactive),–
Cc1cccc(N2N=C(c3ccccc3)CC2c2ccccc2)c1 (centres undefined),> 30 µM (inactive),–
COc1ccc(C2CC(c3ccccc3Cl)=NN2c2ccc(S(N)(=O)=O)cc2)cc1 (centres undefined),> 30 µM (inactive),–
